Source: patent US12195427B2, “MASP-2 inhibitors and methods of use” (priority 2018, dated 2025)

Target: MASP-2 CCP2-SP (Homo sapiens (Human), UniProt O00187)
Test: MASP-2 co-crystallization, X-ray crystallography and structure analysis (H-bonds, van der Waals contacts);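 as to Ligand-pharmacophore element distance, pharmacophore element C2: distance from averaged pharmacophore element to bound ligand; missing value means element absent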;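 as to Ligand-pharmacophore element distance, pharmacophore element C3: distance from averaged pharmacophore element to bound ligand; missing value means element absent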;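 as to Ligand-pharmacophore element distance, pharmacophore element C4: distance from averaged pharmacophore element to bound ligand; missing value means element absent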;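 as to Ligand-pharmacophore element distance, pharmacophore element C5: distance from averaged pharmacophore element to bound ligand; missing value means element absent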
Set-up: van der Waals contact distance, MASP-2 HIS 483 atom CD2 / van der Waals contact distance, MASP-2 HIS 483 atom NE2 / van der Waals contact distance, SER 654 C to compound atom / van der Waals contact distance, SER 654 O to compound atom / van der Waals contact distance, TRP 655 C to compound atom / van der Waals contact distance, MASP-2 GLY 528 atom CA / van der Waals contact distance TRP 655 atom CZ3 / van der Waals contact distance TRP 655 atom N / van der Waals contact distance TRP 655 atom CE3 / van der Waals contact distance GLY 656 atom C / van der Waals contact distance GLY 656 atom CA / van der Waals contact distance GLY 656 atom O / van der Waals contact distance, MASP-2 TYR 607 atom CD1 / van der Waals contact distance, MASP-2 PRO 606 atom O / d(C3,CA1) / d(CA1,N1)2 / d(H4,O1) / d(H4,O2) / d(O1,O2) / d(CA1,O2) / d(CA6,O1) / d(CA6,O2) / d(CA1,C5) / d(O2,H3) / d(N2,C2) / d(CA5,N2) / d(N2,C4) / d(N2,C6) / d(N2,CA3) / d(N2,O3) / d(O4,H2): unit not given beside the values
Conditions: for Ligand-pharmacophore element distance, pharmacophore element C2 / Ligand-pharmacophore element distance, pharmacophore element C3 / Ligand-pharmacophore element distance, pharmacophore element C4 / Ligand-pharmacophore element distance, pharmacophore element C5 / Ligand-pharmacophore element distance, pharmacophore element C6 / Ligand-pharmacophore element distance, pharmacophore element C7 / Ligand-pharmacophore element distance, pharmacophore element CA1 / Ligand-pharmacophore element distance, pharmacophore element CA2 / Ligand-pharmacophore element distance, pharmacophore element CA3 / Ligand-pharmacophore element distance, pharmacophore element CA4 / Ligand-pharmacophore element distance, pharmacophore element CA5 / Ligand-pharmacophore element distance, pharmacophore element CA6: Table A4-1; for d(CA1,C5) / d(CA1,O1) / d(CA1,O2) / d(CA1,O4) / d(H4,O1) / d(H4,O2) / d(O1,O2) / d(O4,H2): Table A5-1 pharmacophore: distance between elements, S2/S1 region; for d(N2,C2) / d(N2,CA2) / d(O2,H3) / d(O2,N2): Table A5-2 pharmacophore distance, S3/S4 region; for a(C5, CA1, O1) / a(CA1, O1, O2) / a(CA1, O4, H2) / a(O1, CA1, O4) / a(O1, O2, H4): Table A6-1 pharmacophore angle; for a(O1, O2, H3) / a(O1, O2, N2) / a(O2, N2, C2) / a(O2, N2, CA2): Table A6-2 pharmacophore angle; for Pharmacophore torsion angle a(C5, CA1, O1, H4) / Pharmacophore torsion angle a(H4, O1, O2, H3) / Pharmacophore torsion angle a(H4, O1, O2, N2) / Pharmacophore torsion angle a(O1, H4, O2, CA1) / Pharmacophore torsion angle a(O1, O2, N2, C2): Table A7-1; for Pharmacophore torsion angle a(C5, CA1, O1, H4) / Pharmacophore torsion angle a(H4, O1, O2, H3) / Pharmacophore torsion angle a(H4, O1, O2, N2) / Pharmacophore torsion angle a(O1, H4, O2, CA1) / Pharmacophore torsion angle a(O1, O2, N2, C2) / Pharmacophore torsion angle a(O1, O2, N2, CA2): between pharmacophore elements of the bound compound; for Pharmacophore torsion angle a(O1, O2, N2, CA2): Table A7-2
Source text: This example illustrates the preparation of recombinant MASP-2 protein, based on UniProt O00187, human mannan-binding lectin serine protease 2. Expression constructs for human MASP-2 CCP2-SP and CCP2-SP-6HIS were generated for recombinant expression in E. coli cells.
Typically, crystallization hits were obtained by screening against […] 96-well crystallization reagent kits (GRAS6, GRAS2, Hampton Research; MORPHEUS, Molecular Dimensions; Wizard 1&2 Cryo, Rigaku Reagents) and crystal growth was inspected by optical microscopy. Crystals were used directly or further optimized for X-ray diffraction. Crystals were captured with cryogenic loops and dipped into liquid nitrogen directly or cryoprotected with a 20% glycerol in crystallization formulation before flash-cooling in liquid nitrogen.
Thereafter crystals are transferred once or twice for soaking within the crystallization solution containing the MASP-2 inhibitor.
Crystals were diffracted with synchrotron X-rays of […] and X-ray diffraction datasets were collected at beamlines SSRL BL9-2, BL14-1, BL12-2 as well as ALS sector 5 using Dectris Pilatus and Eiger detectors. Structures were determined by molecular replacement using portions of the structure 1Q3X as search models and partially refined with Buster 2.10.2 or Refmac 5.8. […] When multiple ligand poses were observed, for instance arising from multiple molecules in the asymmetric unit or refined dual poses within the same molecule, only one pose was selected and analyzed.
LigPlot+ calls these ‘nonbonded contacts’ or ‘hydrophobic contacts’. Despite the name, there are atom pairings that include possible H-bonds. Thus, in some instances, the Table A2 also contains H-bond interactions.

[1] = Table A8-6, nearest protein atom in cell to the left

MASP-2 CCP2-SP, sequence (O00187 445-686): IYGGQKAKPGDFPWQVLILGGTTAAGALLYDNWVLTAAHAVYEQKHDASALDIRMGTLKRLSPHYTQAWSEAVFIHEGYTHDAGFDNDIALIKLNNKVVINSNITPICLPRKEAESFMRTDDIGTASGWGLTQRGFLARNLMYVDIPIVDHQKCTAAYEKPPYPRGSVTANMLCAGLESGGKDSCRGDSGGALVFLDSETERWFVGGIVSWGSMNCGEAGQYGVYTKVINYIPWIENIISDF
MASP-2 CCP2-SP, sequence (O00187 364-432 partner): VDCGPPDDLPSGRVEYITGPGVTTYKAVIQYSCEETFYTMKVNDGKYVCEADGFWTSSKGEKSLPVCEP

## C[C@H](NC(=O)[C@H]1C[C@@H](c2ccccc2)CCN1)C(=O)NCc1cc(Cl)ccc1O.Cl [1078_10]
  Ligand-pharmacophore element distance, pharmacophore element C2: 0.49
  Ligand-pharmacophore element distance, pharmacophore element C3: 0
  Ligand-pharmacophore element distance, pharmacophore element C4: 0
  Ligand-pharmacophore element distance, pharmacophore element C5: 0.3
  Ligand-pharmacophore element distance, pharmacophore element C6: 0
  Ligand-pharmacophore element distance, pharmacophore element C7: 0
  Ligand-pharmacophore element distance, pharmacophore element CA1: 1.34
  Ligand-pharmacophore element distance, pharmacophore element CA2: 0.49
  Ligand-pharmacophore element distance, pharmacophore element CA3: 0
  Ligand-pharmacophore element distance, pharmacophore element CA4: 0
  Ligand-pharmacophore element distance, pharmacophore element CA5: 0
  Ligand-pharmacophore element distance, pharmacophore element CA6: 0
  d(CA1,C5): 3.12
  d(CA1,O1): 4.35
  d(CA1,O2): 4.37
  d(CA1,O4): 2.76
  d(H4,O1): 3.11
  d(H4,O2): 3.46
  d(O1,O2): 2.72
  d(O4,H2): 0.97
  d(N2,C2): 1.48
  d(N2,CA2): 5.72
  d(O2,H3): 1.97
  d(O2,N2): 2.74
  a(C5, CA1, O1): 160.63
  a(CA1, O1, O2): 108.49
  a(CA1, O4, H2): 127.01
  a(O1, CA1, O4): 71.55
  a(O1, O2, H4): 131.53
  a(O1, O2, H3): 146.00
  a(O1, O2, N2): 152.80
  a(O2, N2, C2): 131.78
  a(O2, N2, CA2): 156.19
  Pharmacophore torsion angle a(C5, CA1, O1, H4): −9.97
  Pharmacophore torsion angle a(H4, O1, O2, H3): −152.67
  Pharmacophore torsion angle a(H4, O1, O2, N2): −164.78
  Pharmacophore torsion angle a(O1, H4, O2, CA1): −84.11
  Pharmacophore torsion angle a(O1, O2, N2, C2): 123.40
  Pharmacophore torsion angle a(O1, O2, N2, CA2): 136.18
Table A8-6, 6th residue column, nearest protein atom in cell to the left
  Pharmacophore protein distance to MET_658 (first MET_658 column): 3.04
Table A8-6, 9th residue column, nearest protein atom in cell to the left
  Pharmacophore protein distance to MET_658 (second MET_658 column): 3.81
[1]
  Pharmacophore protein distance to GLY_528: 3.40
  Pharmacophore protein distance to PHE_529: 3.08
  Pharmacophore protein distance to PRO_608: 3.66
  Pharmacophore protein distance to SER_611: 2.78
Table A8-6, pharmacophore elements C6, CA3, O3, H1, nearest protein atom in cell to the left
  Pharmacophore protein distance to TRP_655: 3.89

## C[C@H](NC(=O)[C@H]1C[C@@H](c2ccccc2)CCN1)C(=O)NCc1cc(Cl)ccc1O.Cl [1078_11]
  Ligand-pharmacophore element distance, pharmacophore element C2: 0.6
  Ligand-pharmacophore element distance, pharmacophore element C3: 0
  Ligand-pharmacophore element distance, pharmacophore element C4: 0
  Ligand-pharmacophore element distance, pharmacophore element C5: 0.41
  Ligand-pharmacophore element distance, pharmacophore element C6: 0
  Ligand-pharmacophore element distance, pharmacophore element C7: 0
  Ligand-pharmacophore element distance, pharmacophore element CA1: 1.64
  Ligand-pharmacophore element distance, pharmacophore element CA2: 0.64
  Ligand-pharmacophore element distance, pharmacophore element CA3: 0
  Ligand-pharmacophore element distance, pharmacophore element CA4: 0
  Ligand-pharmacophore element distance, pharmacophore element CA5: 0
  Ligand-pharmacophore element distance, pharmacophore element CA6: 0
  d(CA1,C5): 3.12
  d(CA1,O1): 4.69
  d(CA1,O2): 4.58
  d(CA1,O4): 2.75
  d(H4,O1): 2.26
  d(H4,O2): 2.51
  d(O1,O2): 3.42
  d(O4,H2): 0.97
  d(N2,C2): 1.47
  d(N2,CA2): 5.75
  d(O2,H3): 3.05
  d(O2,N2): 2.97
  a(C5, CA1, O1): 161.80
  a(CA1, O1, O2): 109.94
  a(CA1, O4, H2): 130.34
  a(O1, CA1, O4): 59.87
  a(O1, O2, H4): 88.73
  a(O1, O2, H3): 137.81
  a(O1, O2, N2): 142.32
  a(O2, N2, C2): 120.15
  a(O2, N2, CA2): 152.82
  Pharmacophore torsion angle a(C5, CA1, O1, H4): 37.14
  Pharmacophore torsion angle a(H4, O1, O2, H3): −120.02
  Pharmacophore torsion angle a(H4, O1, O2, N2): −112.40
  Pharmacophore torsion angle a(O1, H4, O2, CA1): −55.96
  Pharmacophore torsion angle a(O1, O2, N2, C2): 136.21
  Pharmacophore torsion angle a(O1, O2, N2, CA2): 138.54

## C[C@H](NC(=O)[C@H]1C[C@@H](c2ccccc2)CCN1)C(=O)NCc1cc(Cl)ccc1O.Cl [1078_12]
  Ligand-pharmacophore element distance, pharmacophore element C2: 0.4
  Ligand-pharmacophore element distance, pharmacophore element C3: 0
  Ligand-pharmacophore element distance, pharmacophore element C4: 0
  Ligand-pharmacophore element distance, pharmacophore element C5: 0.52
  Ligand-pharmacophore element distance, pharmacophore element C6: 0
  Ligand-pharmacophore element distance, pharmacophore element C7: 0
  Ligand-pharmacophore element distance, pharmacophore element CA1: 1.43
  Ligand-pharmacophore element distance, pharmacophore element CA2: 0.64
  Ligand-pharmacophore element distance, pharmacophore element CA3: 0
  Ligand-pharmacophore element distance, pharmacophore element CA4: 0
  Ligand-pharmacophore element distance, pharmacophore element CA5: 0
  Ligand-pharmacophore element distance, pharmacophore element CA6: 0
  d(CA1,C5): 3.12
  d(CA1,O1): 4.34
  d(CA1,O2): 4.51
  d(CA1,O4): 2.74
  d(H4,O1): 3.08
  d(H4,O2): 3.40
  d(O1,O2): 2.81
  d(O4,H2): 0.98
  d(N2,C2): 1.45
  d(N2,CA2): 5.74
  d(O2,H3): 2.85
  d(O2,N2): 2.84
  a(C5, CA1, O1): 161.92
  a(CA1, O1, O2): 111.74
  a(CA1, O4, H2): 127.55
  a(O1, CA1, O4): 67.44
  a(O1, O2, H4): 128.90
  a(O1, O2, H3): 150.80
  a(O1, O2, N2): 154.56
  a(O2, N2, C2): 130.32
  a(O2, N2, CA2): 157.60
  Pharmacophore torsion angle a(C5, CA1, O1, H4): 11.21
  Pharmacophore torsion angle a(H4, O1, O2, H3): −120.32
  Pharmacophore torsion angle a(H4, O1, O2, N2): −108.09
  Pharmacophore torsion angle a(O1, H4, O2, CA1): −75.33
  Pharmacophore torsion angle a(O1, O2, N2, C2): 114.97
  Pharmacophore torsion angle a(O1, O2, N2, CA2): 110.39

## C[C@H](NC(=O)[C@H]1C[C@@H](c2ccccc2)CCN1)C(=O)NCc1cc(Cl)ccc1O.Cl [1078_13]
  Ligand-pharmacophore element distance, pharmacophore element C2: 0.58
  Ligand-pharmacophore element distance, pharmacophore element C3: 0
  Ligand-pharmacophore element distance, pharmacophore element C4: 0
  Ligand-pharmacophore element distance, pharmacophore element C5: 0.47
  Ligand-pharmacophore element distance, pharmacophore element C6: 0
  Ligand-pharmacophore element distance, pharmacophore element C7: 0
  Ligand-pharmacophore element distance, pharmacophore element CA1: 1.62
  Ligand-pharmacophore element distance, pharmacophore element CA2: 0.73
  Ligand-pharmacophore element distance, pharmacophore element CA3: 0
  Ligand-pharmacophore element distance, pharmacophore element CA4: 0
  Ligand-pharmacophore element distance, pharmacophore element CA5: 0
  Ligand-pharmacophore element distance, pharmacophore element CA6: 0
  d(CA1,C5): 3.12
  d(CA1,O1): 4.37
  d(CA1,O2): 4.66
  d(CA1,O4): 2.76
  d(H4,O1): 3.14
  d(H4,O2): 3.66
  d(O1,O2): 3.25
  d(O4,H2): 0.98
  d(N2,C2): 1.47
  d(N2,CA2): 5.61
  d(O2,H3): 2.11
  d(O2,N2): 2.79
  a(C5, CA1, O1): 162.99
  a(CA1, O1, O2): 115.77
  a(CA1, O4, H2): 129.33
  a(O1, CA1, O4): 65.06
  a(O1, O2, H4): 123.59
  a(O1, O2, H3): 135.66
  a(O1, O2, N2): 146.15
  a(O2, N2, C2): 127.57
  a(O2, N2, CA2): 154.39
  Pharmacophore torsion angle a(C5, CA1, O1, H4): −7.66
  Pharmacophore torsion angle a(H4, O1, O2, H3): −157.30
  Pharmacophore torsion angle a(H4, O1, O2, N2): −162.99
  Pharmacophore torsion angle a(O1, H4, O2, CA1): −78.80
  Pharmacophore torsion angle a(O1, O2, N2, C2): 118.91
  Pharmacophore torsion angle a(O1, O2, N2, CA2): 137.37
